Measured values: patent publication US20180050029A1, “SELECTIVE CONNEXIN HEMICHANNELS BLOCKERS FOR THE TREATMENT OF EPILEPSY” (PONTIFICIA UNIVERSIDAD CATÓLICA DE CHILE, priority 2015, published 2018)
Values joined by “and” are separate entries in the source; they are usually repeats but may differ in a detail not shown here. Equal values may be shown once. “Also recorded” adds a separate entry of the source.

Legend:
[1] = tested on: hemichannels and channels formed by connexins and pannexins; test: Ethidium uptake in brain slices of PTZ-treated mice, slices treated with Cbx; assay type: cell-based; conditions: for PTZ-induced ethidium uptake: 20 min on slices, astrocytes, oligodendrocytes and neurons
Description: Adult male mice at 2 months were injected intraperitoneally with PTZ (70 mg/kg) or PBS as a control. After 30 min post injection of the treatment, the action of Cbx at two concentrations was evaluate, 10 μM to block pannexin hemichannels and 100 μM to block both connexin and pannexin-based channels. The mice were sacrificed to extract the brains and obtain coronal slices 400 μm thick. The slices, once stabilized, were treated with Cbx for 20 min and then incubated with the ethidium bromide dye (4 μM) for 10 minutes. Thereafter, the slices were fixed and the immunofluorescence staining process was continued as described above. The mean data of ethidium uptake was normalized to the control condition (dotted line) of each cell type. […] The results obtained were expressed as the mean±SEM. Samples were determined using the Student's t-test (*p<0.05).

[2] = tested on: C57B/6 mice; test: Toxicity or lethality of molecule D4, supervision protocol; assay type: in vivo; conditions: 0.2, 2, 20, 200, 2000 mg/kg i.p.
Description: To evaluate the toxicity or lethality of the molecule D4, Two-month adult mice were injected intraperitoneally in increasing doses (0.2; 2; 20; 200; 2000 mg/kg mouse weight) and were left under observation for 72 hours. After the observation time, the behavioral and physiological aspects of the animals were evaluated based on the Protocol of Supervision according to the Bioethics and Biosafety guidelines of the Faculty of Biological Sciences of the Pontificia Universidad Catolica de Chile that rules in the laboratory. The variables considered included physiological data (weight loss), appearance (posture) and spontaneous behavior (attitude to stimulation). […] In addition, mortality was zero at all concentrations evaluated. The evaluation of mortality of the molecule D4 as an anticonvulsant drug administered in mice prior to the induction of epilepsy with PTZ was zero (Table 3).
Measurements are performed by trained personnel, who know the basal or usual behavior of the animals under study.

[3] = tested on: connexin hemichannels in brain cells; test: Ethidium uptake in brain slices of mice pretreated with D4 before PTZ; assay type: in vivo; conditions: D4 2 mg/kg i.p. six and one hour before PTZ (70 mg/kg), 30 min post PTZ; microglia, astrocytes and neurons
Description: Immunofluorescence and visualization in confocal microscopy identified cell types.
The mean data from ethidium uptake was normalized to the control condition (see FIG. 5, dotted line) of each cell type. […] The results obtained were expressed as the mean±SEM. Samples were determined using the Student's t-test (*p<0.05).

[4] = tested on: PTZ-induced seizures in C57BL/6 mice; test: PTZ-induced seizures and mortality, anticonvulsant pretreatment; conditions: for Animal Mortality: dead/total animals
[5] = tested on: adult C57BL/6 mice; test: PTZ dose response, epileptogenic episodes and mortality in mice; assay type: in vivo; conditions: for Mortality: dead/total animals
Description: As epileptogenic agent, we used PTZ (Pentylenetetrazole), a GABAA receptor inhibitor widely used in the study and development of anticonvulsant drugs.
To determine the effective dose, a dose response curve was performed based on the available literature. […]

[6] = tested on: connexin hemichannels in brain cells; test: Ethidium uptake in brain slices of PTZ-treated mice (time course); assay type: in vivo; conditions: PTZ 70 mg/kg i.p.
Description: Adult male mice of 2 months were injected via i.p. with PTZ (70 mg/kg) or phosphate buffered saline (PBS) as a control. Mice were sacrificed after 10, 20 and 30 min post-treatment to extract the brains and generate coronal slices of 400 μm thick using a vibratome. The slices were stabilized for 1 h prior to dye uptake, immersed in ACSF (artificial cerebrospinal fluid), bubbled with 95% O2 and 5% CO2 and at room temperature. Brain slices were incubated with the ethidium bromide dye (Etd, 4 μM) for 10 minutes. Subsequently, the slices were washed and fixed for 1 h with paraformaldehyde (4%). The brain slices were incubated for 40 min with blocking solution (PBS, 0.2% gelatine, 1% triton). Subsequently, the samples were incubated overnight at 4° C. with the primary antibody against molecular markers of the different cell types: anti-mast cell “Transmembrane tyrosine kinase” receptor CD117 (CD117); Integrin αM anti-microglia (CD11b); anti-astrocytes “glial fibrillary acidic protein” (GFAP); anti-oligodendrocytes “proteolipid protein” (PLP) and anti-neuronal neuron-market (NeuN). After washing with PBS (phosphate buffered saline), they were incubated with the Cy2-conjugated secondary antibody for 2 hours at room temperature and avoiding light.
Finally, the brain slices were washed and mounted on Flouromount G mounting medium and observed directly by the laser-scanning confocal microscope (Nikon Eclipse Ti). Consecutive images were taken with 40× target at 1 μm intervals sequentially with two lasers (Argon, 488 nm and Helium/Neon, 543 nm). In FIG. 1, representative images of mast cells (1.A, C), microglia (1.E, F), astrocytes (1.1, K), oligodendrocytes (1.M, O) and neurons (1.Q, S) and Etd-uptake of PTZ-induced control mice and mice (1.B, D, 1.F, H, 1.J, L, 1.N, P, 1.R, T).
The mean data of ethidium uptake was normalized to the control condition (dotted line) of each cell type. […] The results obtained were expressed as the mean±SEM. Samples were determined using the Student's t-test (*p<0.05).

[7] = tested on: glial hemichannels; test: Application of PTZ to brain slices; assay type: cell-based; conditions: PTZ applied to brain slices
[8] = PTZ (70 mg/kg) without molecule D4

Compound: CC1(C)[C@@H](OC(=O)CCC(=O)O)CC[C@]2(C)[C@H]3C(=O)C=C4[C@@H]5C[C@@](C)(C(=O)O)CC[C@]5(C)CC[C@@]4(C)[C@]3(C)CC[C@@H]12 [Carbenoxolone, carbenoxolone]
- PTZ-induced ethidium uptake ([1]; Cbx 10 μM): block the uptake of ethidium
- PTZ-induced ethidium uptake ([1]; Cbx 100 μM): block the uptake of ethidium
- PTZ-induced hemichannel and channel activity ([1]; FIG. 3 legend, macroglia and neurons): blocks hemispheric activity formed by PTZ-induced connexins and channels

Compound: O=C(OC(C(=O)c1ccc(Cl)cc1)c1ccccc1)c1ccc2ccccc2n1 (centres unmarked) [Molecule D4, 2-(4-chlorophenyl)-2-oxo-1-phenylethyl quinoline-2-carboxylate]
- Mortality ([2]; 72 hours observation): zero
- observable side effects ([2]; 72 hours observation, 2000 mg/kg): no observed side effects; also recorded: no observable side effects
- supervision protocol score (weight loss, posture, spontaneous behavior) ([2]; 72 hours, score 0-3 is normal): zero
- PTZ-induced hemichannel activity (ethidium uptake) [3]: blocks the activity of hemichannels formed by PTZ-induced connexin in brain cells; also recorded: not positive to Etd; also recorded: blocks PTZ-induced hemichannel activity and basal activation
- Animal Mortality ([4]; Molecule D4 (2 mg/kg) prior to PTZ (70 mg/kg)): zero

Compound: C1CCc2nnnn2CC1 [PTZ, Pentylenetetrazole]
- % Mortality ([5]; PTZ 65 mg/kg i.p. single dose): 0%
- Eliptogenic Episode ([5]; PTZ 65 mg/kg i.p. single dose): No
- Mortality ([5]; PTZ 65 mg/kg i.p. single dose): 0/3
- % Mortality ([5]; PTZ 70 mg/kg i.p. single dose): 20%
- Eliptogenic Episode ([5]; PTZ 70 mg/kg i.p. single dose): induces convulsions and Yes
- Mortality ([5]; PTZ 70 mg/kg i.p. single dose): without being lethal and 3/15
- % Mortality ([5]; PTZ 75 mg/kg i.p. single dose): 50%
- Eliptogenic Episode ([5]; PTZ 75 mg/kg i.p. single dose): Yes
- Mortality ([5]; PTZ 75 mg/kg i.p. single dose): 2/4
- % Mortality ([5]; PTZ 80 mg/kg i.p. single dose): 100%
- Eliptogenic Episode ([5]; PTZ 80 mg/kg i.p. single dose): Yes
- Mortality ([5]; PTZ 80 mg/kg i.p. single dose): 3/3
- % Mortality ([5]; PTZ 90 mg/kg i.p. single dose): 100%
- Eliptogenic Episode ([5]; PTZ 90 mg/kg i.p. single dose): Yes
- Mortality ([5]; PTZ 90 mg/kg i.p. single dose): 3/3
- time to develop seizures post-administration ([5]; PTZ-treated mice): ≤ 10 min
- behaviour in the hours after the seizures ([5]; PTZ-treated mice, period of several hours): very low motor activity and sporadic contractions
- epileptogenic episodes ([5]; higher doses (>100 mg/kg)): induce epileptogenic episodes
- mortality rate ([5]; higher doses (>100 mg/kg), at 5 min after administration): 100%
- epileptogenic episodes ([5]; lower dose (<65 mg/kg)): does not induce evident epileptogenic episodes
- hemichannel activity (ethidium uptake) in brain slices ([6]; versus control mice): induces activity of connexin hemichannels in brain cells; also recorded: positive for high activity of hemichannels; also recorded: positive for Etd fluorescence
- hemichannel activity (ethidium uptake normalized to control) ([6]; astrocytes and oligodendrocytes, first (FIG. 2.A)): increases the activity of the hemichannels
- hemichannel activity (ethidium uptake normalized to control) ([6]; mast cells, microglia and neurons, after 30 min (FIG. 2.B and C)): increases the activity of the hemichannels
- opening of glial hemichannels [7]: induced the opening of glial hemichannels
- % Mortality [4, 8]: 20%
- Animal Mortality [4, 8]: 3/15

Compound: O=C1NC(=O)C(c2ccccc2)(c2ccccc2)N1 [phenytoin, Phenytoin]
- prevention of PTZ-induced seizures ([4]; phenytoin treatment, after 10 minutes of treatment): does not prevent PTZ-induced seizures
